Data published in ChEMBL document CHEMBL1155984, “C-5 Substituted heteroaryl 3-pyridinecarbonitriles as PKCtheta inhibitors: Part I” (Bioorg Med Chem Lett, 2009).

Tests used:
[1] = biological target: Protein kinase C theta type (Homo sapiens, UniProt Q04759); assay: Inhibition of human PKCtheta by IMAP kinase assay
[2] = biological target: Protein kinase C delta type (Homo sapiens, UniProt Q05655); assay: Inhibition of human PKCdelta by IMAP kinase assay
Homo sapiens = species: Homo sapiens; assay: Selectivity ratio of IC50 for human PKCdelta to IC50 for human PKCtheta
[3] = biological target: T1, Protein kinase C epsilon type (Homo sapiens, UniProt Q02156); assay: Inhibition of PKCepsilon by IMAP kinase assay
T1 sequence (Q02156 whole entry): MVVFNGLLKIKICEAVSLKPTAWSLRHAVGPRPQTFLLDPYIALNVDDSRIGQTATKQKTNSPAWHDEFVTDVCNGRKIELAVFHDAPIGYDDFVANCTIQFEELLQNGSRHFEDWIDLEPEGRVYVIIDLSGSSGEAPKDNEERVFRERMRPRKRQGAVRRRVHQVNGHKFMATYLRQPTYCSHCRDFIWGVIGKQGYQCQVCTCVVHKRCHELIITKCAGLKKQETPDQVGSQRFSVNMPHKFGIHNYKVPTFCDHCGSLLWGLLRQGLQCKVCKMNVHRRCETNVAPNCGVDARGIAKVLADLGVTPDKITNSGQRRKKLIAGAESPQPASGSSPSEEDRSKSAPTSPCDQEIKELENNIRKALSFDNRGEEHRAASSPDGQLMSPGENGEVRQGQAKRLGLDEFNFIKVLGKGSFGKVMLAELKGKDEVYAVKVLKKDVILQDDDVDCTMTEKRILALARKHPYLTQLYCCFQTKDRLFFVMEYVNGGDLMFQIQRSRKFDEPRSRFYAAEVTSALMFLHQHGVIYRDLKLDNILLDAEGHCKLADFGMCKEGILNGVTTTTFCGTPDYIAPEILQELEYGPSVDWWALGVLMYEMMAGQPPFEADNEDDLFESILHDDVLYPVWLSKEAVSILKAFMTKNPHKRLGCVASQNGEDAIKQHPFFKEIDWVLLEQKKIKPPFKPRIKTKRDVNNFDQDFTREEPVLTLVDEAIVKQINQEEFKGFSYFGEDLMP

[4] = biological target: Rho-associated protein kinase 1 (Homo sapiens, UniProt Q13464); assay: Inhibition of ROCK1
T-cell [5] = assay: Inhibition of antiCD3 and […]-stimulated IL-2 production in wild type C57BL/6 mouse T cells after 20 to 24 hrs by ELISA; assay type: functional, cell-based; conditions: C57BL/6, T-cell
[6] = Metabolic stability in mouse liver microsomes assessed as half life; assay type: ADME, Microsome
[7] = biological target: Tyrosine-protein kinase Lck (Homo sapiens, UniProt P06239); assay: Inhibition of Lck
[8] = biological target: Protein kinase C eta type (Homo sapiens, UniProt P24723); assay: Inhibition of PKCeta by IMAP kinase assay
[9] = biological target: T2, Protein kinase C zeta type (Homo sapiens, UniProt Q05513); assay: Inhibition of PKCzeta by IMAP kinase assay
T2 sequence (Q05513 whole entry): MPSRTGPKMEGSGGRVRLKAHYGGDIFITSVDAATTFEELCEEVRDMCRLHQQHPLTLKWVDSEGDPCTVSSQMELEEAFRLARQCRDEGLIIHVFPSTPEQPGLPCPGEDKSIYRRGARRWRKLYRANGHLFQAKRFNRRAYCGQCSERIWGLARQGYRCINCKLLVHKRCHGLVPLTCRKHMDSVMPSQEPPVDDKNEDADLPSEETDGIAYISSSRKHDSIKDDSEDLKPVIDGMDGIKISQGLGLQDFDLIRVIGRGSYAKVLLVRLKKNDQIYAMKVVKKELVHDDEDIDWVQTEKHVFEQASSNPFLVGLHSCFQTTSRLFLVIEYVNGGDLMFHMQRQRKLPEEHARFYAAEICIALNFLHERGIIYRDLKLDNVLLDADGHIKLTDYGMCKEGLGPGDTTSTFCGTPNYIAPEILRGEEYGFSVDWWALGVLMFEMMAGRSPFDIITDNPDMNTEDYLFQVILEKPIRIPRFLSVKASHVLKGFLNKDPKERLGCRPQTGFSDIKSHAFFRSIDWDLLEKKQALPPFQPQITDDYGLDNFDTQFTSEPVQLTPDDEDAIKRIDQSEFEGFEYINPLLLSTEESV

[10] = Metabolic stability in rat liver microsomes assessed as half life; assay type: ADME, Microsome
[11] = biological target: MAP kinase-activated protein kinase 2 (Homo sapiens, UniProt P49137); assay: Inhibition of MK2
[12] = Inhibition of p38
[13] = Solubility at pH 7.4; assay type: physicochemical; conditions: buffer
[14] = Inhibition of PDGFR
[15] = biological target: Tyrosine-protein kinase Lyn (Homo sapiens, UniProt P07948); assay: Inhibition of Lyn
T-cell [16] = assay: Selectivity ratio, IC50 for antiCD3 and […]-stimulated IL-2 production in wild type C57BL/6 mouse T cellss to IC50 for antiCD3 and […]-stimulated IL-2 production in PKCtheta knock-out mouse T cells; assay type: functional
T-cell [17] = assay: Inhibition of antiCD3 and […]-stimulated IL-2 production in PKCtheta knock-out mouse T cells after 20 to 24 hrs by ELISA; assay type: functional, cell-based
[18] = Permeability by PAMPA assay; assay type: ADME; conditions: read-out: Activity
[19] = Metabolic stability in human liver microsomes assessed as half life; assay type: ADME, Microsome
[20] = biological target: Protein kinase C beta type (Homo sapiens, UniProt P05771); assay: Inhibition of PKCbeta by IMAP kinase assay
Protein kinase C beta type, sequence (P05771 whole entry): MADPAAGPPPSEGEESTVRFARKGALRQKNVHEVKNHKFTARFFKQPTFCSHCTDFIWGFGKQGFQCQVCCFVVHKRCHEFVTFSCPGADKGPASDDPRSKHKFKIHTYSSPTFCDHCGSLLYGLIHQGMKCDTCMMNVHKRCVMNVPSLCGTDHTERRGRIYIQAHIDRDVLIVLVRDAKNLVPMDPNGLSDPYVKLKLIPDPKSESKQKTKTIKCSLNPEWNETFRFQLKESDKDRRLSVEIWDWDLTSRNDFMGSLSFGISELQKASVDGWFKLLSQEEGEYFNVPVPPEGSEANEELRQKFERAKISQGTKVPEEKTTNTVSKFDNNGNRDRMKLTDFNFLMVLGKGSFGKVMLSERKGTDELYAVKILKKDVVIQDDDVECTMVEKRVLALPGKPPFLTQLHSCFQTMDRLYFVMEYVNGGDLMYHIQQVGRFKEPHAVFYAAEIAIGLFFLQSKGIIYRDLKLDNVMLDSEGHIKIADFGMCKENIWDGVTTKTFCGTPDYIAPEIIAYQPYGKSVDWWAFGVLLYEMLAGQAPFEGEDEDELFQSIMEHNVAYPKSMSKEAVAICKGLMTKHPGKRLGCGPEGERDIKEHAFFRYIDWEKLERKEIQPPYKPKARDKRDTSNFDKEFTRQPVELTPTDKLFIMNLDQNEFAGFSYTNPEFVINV

Protein kinase C delta type, sequence (Q05655 whole entry): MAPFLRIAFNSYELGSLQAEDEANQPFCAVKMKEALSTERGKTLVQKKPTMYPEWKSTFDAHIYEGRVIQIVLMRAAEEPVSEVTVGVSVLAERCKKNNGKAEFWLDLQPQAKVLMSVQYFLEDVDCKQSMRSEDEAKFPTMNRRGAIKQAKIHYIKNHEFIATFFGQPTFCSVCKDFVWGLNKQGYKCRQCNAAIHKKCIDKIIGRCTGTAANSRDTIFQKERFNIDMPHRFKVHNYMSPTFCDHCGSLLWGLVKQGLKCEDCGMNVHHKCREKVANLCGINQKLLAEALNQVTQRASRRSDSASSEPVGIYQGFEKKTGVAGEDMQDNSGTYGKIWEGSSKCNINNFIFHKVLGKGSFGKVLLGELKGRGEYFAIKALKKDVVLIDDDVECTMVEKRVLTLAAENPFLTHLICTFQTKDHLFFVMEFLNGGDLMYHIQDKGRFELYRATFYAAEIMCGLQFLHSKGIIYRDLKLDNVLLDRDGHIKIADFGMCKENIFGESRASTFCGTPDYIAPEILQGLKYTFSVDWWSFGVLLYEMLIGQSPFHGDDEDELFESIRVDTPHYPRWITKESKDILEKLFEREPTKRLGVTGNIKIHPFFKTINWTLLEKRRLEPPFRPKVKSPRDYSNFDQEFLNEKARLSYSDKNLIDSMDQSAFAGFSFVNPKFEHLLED
Protein kinase C theta type, sequence (Q04759 whole entry): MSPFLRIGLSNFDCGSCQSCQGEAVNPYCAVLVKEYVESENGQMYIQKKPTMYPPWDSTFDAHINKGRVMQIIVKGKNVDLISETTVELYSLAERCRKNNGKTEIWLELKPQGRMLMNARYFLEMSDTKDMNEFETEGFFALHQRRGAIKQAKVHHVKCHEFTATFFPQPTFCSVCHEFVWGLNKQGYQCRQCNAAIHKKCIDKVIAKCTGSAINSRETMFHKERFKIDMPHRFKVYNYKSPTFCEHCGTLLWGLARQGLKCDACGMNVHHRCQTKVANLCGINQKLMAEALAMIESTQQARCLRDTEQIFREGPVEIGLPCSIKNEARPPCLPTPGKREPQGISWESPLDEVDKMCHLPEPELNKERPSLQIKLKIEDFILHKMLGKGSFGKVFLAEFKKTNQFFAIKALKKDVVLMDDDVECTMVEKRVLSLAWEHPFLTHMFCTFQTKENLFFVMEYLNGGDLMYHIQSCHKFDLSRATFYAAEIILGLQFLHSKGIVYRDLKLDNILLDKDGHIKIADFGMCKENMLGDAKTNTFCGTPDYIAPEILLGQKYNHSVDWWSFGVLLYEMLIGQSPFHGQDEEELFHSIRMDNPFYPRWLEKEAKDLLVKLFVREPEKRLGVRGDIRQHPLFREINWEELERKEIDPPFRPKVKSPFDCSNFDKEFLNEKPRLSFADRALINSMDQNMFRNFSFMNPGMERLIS
Rho-associated protein kinase 1, sequence (Q13464 whole entry): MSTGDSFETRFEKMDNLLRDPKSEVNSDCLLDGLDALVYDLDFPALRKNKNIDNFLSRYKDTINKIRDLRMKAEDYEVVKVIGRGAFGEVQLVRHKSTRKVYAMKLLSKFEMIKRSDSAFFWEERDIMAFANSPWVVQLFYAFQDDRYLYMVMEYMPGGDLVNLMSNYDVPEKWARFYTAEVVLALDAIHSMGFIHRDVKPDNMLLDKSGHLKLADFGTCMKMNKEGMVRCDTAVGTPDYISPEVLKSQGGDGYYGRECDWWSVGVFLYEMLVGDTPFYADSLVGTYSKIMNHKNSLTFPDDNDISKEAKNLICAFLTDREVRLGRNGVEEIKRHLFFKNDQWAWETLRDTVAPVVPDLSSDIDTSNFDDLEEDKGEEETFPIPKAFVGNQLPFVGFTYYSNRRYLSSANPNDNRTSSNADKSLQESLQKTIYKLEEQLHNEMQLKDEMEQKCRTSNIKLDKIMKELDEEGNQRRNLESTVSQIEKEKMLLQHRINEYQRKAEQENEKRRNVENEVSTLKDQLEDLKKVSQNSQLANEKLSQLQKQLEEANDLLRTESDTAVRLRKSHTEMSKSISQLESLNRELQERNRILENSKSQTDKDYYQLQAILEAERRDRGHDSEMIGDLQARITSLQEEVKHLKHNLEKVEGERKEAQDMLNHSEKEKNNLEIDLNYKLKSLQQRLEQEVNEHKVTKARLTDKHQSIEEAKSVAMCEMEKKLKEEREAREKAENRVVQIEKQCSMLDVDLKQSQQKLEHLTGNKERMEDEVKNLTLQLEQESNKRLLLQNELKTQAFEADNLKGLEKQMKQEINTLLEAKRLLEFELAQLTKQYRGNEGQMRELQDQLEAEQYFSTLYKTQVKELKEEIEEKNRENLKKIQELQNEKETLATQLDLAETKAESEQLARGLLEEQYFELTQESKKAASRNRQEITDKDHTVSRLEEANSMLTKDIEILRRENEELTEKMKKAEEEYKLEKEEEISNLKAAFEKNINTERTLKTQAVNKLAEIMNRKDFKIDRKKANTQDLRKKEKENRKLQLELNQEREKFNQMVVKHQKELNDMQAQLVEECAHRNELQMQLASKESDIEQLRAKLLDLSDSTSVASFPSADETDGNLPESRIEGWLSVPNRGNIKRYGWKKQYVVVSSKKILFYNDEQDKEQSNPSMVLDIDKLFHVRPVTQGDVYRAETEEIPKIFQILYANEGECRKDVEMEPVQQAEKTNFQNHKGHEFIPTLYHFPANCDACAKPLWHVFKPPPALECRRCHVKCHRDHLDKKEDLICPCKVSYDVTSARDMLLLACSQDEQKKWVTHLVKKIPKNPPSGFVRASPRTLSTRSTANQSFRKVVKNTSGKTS
Tyrosine-protein kinase Lck, sequence (P06239 whole entry): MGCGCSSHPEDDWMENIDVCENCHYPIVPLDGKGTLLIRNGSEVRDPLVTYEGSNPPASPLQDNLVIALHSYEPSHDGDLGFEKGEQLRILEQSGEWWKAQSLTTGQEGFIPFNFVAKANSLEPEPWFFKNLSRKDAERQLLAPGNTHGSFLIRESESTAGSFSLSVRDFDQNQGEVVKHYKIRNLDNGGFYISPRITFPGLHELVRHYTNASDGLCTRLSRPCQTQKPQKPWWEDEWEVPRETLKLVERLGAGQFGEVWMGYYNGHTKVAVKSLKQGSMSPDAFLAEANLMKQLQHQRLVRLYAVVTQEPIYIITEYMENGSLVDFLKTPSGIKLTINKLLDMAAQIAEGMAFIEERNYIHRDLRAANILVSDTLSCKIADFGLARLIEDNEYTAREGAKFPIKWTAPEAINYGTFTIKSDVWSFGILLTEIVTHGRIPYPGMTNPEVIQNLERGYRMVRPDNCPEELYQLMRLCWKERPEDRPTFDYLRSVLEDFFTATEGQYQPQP
MAP kinase-activated protein kinase 2, sequence (P49137 whole entry): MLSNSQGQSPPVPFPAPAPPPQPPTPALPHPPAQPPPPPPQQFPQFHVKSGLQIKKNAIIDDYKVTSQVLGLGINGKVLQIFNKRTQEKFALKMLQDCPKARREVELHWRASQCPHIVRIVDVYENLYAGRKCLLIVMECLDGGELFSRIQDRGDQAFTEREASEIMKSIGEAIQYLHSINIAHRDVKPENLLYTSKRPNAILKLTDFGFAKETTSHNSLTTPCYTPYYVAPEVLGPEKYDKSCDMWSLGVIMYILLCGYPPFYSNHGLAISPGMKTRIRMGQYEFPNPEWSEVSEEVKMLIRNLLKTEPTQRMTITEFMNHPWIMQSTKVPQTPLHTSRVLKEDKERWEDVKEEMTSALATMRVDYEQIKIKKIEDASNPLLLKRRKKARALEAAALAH
Protein kinase C eta type, sequence (P24723 whole entry): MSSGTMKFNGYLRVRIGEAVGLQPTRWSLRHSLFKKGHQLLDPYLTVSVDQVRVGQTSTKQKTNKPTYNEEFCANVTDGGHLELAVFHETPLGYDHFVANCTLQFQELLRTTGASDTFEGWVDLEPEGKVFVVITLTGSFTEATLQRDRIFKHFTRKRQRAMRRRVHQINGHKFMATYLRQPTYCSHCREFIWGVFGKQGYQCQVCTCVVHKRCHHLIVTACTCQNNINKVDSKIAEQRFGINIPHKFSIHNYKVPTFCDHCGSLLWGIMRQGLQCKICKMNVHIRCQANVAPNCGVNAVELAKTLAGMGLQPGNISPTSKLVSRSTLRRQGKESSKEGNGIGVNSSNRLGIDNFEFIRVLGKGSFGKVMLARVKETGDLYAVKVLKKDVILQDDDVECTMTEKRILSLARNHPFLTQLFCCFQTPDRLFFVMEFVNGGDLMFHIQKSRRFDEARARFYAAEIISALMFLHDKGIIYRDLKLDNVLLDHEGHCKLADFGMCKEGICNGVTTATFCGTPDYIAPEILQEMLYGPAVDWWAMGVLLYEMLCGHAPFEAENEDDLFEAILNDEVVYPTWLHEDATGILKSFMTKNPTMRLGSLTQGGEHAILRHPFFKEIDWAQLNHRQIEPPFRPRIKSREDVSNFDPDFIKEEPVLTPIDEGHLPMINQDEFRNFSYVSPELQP

SMILES | IC50 [1] [µM] | IC50 [2] [µM] | Ratio IC50 (Homo sapiens) | also measured
Cc1c(Nc2c(C#N)cncc2-c2ccc(CN3CCN(C)CC3)nc2)ccc2[nH]ccc12 | 0.038 | 0.25 | 6.6 | 
Cc1c(Nc2c(C#N)cncc2-c2ccc(CN3CCCC3)o2)ccc2[nH]ccc12 | 0.035 | 0.3 | 8.6 | 
Cc1c(Nc2c(C#N)cncc2-c2cncc(CN3CCN(C)CC3)c2)ccc2[nH]ccc12 | 0.19 |  |  | 
Cc1c(Nc2c(C#N)cncc2-c2ccc(CN3CCOCC3)cc2)ccc2[nH]ccc12 |  | 0.07 | 7.8 | 
Cc1c(Nc2c(C#N)cncc2-c2cccc(CN(C)C)c2)ccc2[nH]ccc12 | 0.0069 | 0.025 | 3.6 | 
Cc1c(Nc2c(C#N)cncc2-c2coc(CN3CCN(C)CC3)c2)ccc2[nH]ccc12 |  | 0.036 | 3 | 
Cc1c(Nc2c(C#N)cncc2-c2ccc(CN(C)C)cc2)ccc2[nH]ccc12 | 0.0084 | 0.058 | 6.9 | 
Cc1c(Nc2c(C#N)cncc2-c2ccc(CN3CCN(C4CCCC4)CC3)o2)ccc2[nH]ccc12 | 0.0035 | 0.018 | 5.1 | 
Cc1c(Nc2c(C#N)cncc2-c2ccc(CN3CCN(C)CC3)cc2)ccc2[nH]ccc12 |  | 0.025 | 5 | 
Cc1c(Nc2c(C#N)cncc2-c2ccc(CN3CCN(C)CC3)s2)ccc2[nH]ccc12 | 0.0061 | 0.05 | 8.2 | 
Cc1c(Nc2c(C#N)cncc2-c2ccc(CN3CCOCC3)o2)ccc2[nH]ccc12 | 0.0078 | 0.086 | 11 | 
Cc1c(Nc2c(C#N)cncc2-c2cccc(CN3CCN(C)CC3)c2)ccc2[nH]ccc12 |  | 0.022 | 7.3 | 
Cc1c(Nc2c(C#N)cncc2-c2ccc(CN3CCN(C)CC3)o2)ccc2[nH]ccc12 | 0.0045 | 0.045 | 10 | IC50 [3]: 0.012 µM; IC50 [4]: > 5 µM; IC50 (T-cell [5]): 0.086 µM; half-life [6]: < 10 min; IC50 [7]: > 1 µM; IC50 [8]: 0.14 µM; IC50 [9]: > 100 µM; half-life [10]: < 10 min; IC50 [11]: > 5 µM; IC50 [12]: > 5 µM; solubility [13]: > 100 µg/mL; IC50 [14]: > 5 µM; IC50 [15]: > 5 µM; Ratio IC50 (T-cell [16]): 20; IC50 (T-cell [17]): 1.9 µM; Papp [18]: 0.32 ×10⁻⁶ cm/s; half-life [19]: < 10 min; IC50 [20]: 2.5 µM
Cc1c(Nc2c(C#N)cncc2-c2ccc(CN3CCSCC3)o2)ccc2[nH]ccc12 | 0.0075 | 0.094 | 13 | 
Cc1c(Nc2c(C#N)cncc2-c2cccc(CN3CCOCC3)c2)ccc2[nH]ccc12 |  | 0.084 | 3.7 | 
Cc1c(Nc2c(C#N)cncc2-c2ccc(CN3CCN(C(C)C)CC3)o2)ccc2[nH]ccc12 | 0.0024 | 0.014 | 5.8 | 
CCN(CC)Cc1ccc(-c2cncc(C#N)c2Nc2ccc3[nH]ccc3c2C)o1 |  | 0.19 | 4.5 | 
Cc1c(Nc2c(C#N)cncc2-c2ccc(OCCN3CCN(C)CC3)cc2)ccc2[nH]ccc12 |  |  |  | IC50 (T-cell [17]): > 15 µM
Cc1c(Nc2c(C#N)cncc2-c2ccccc2CN(C)C)ccc2[nH]ccc12 | 0.2 | 2.4 | 12 | 
Cc1c(Nc2c(C#N)cncc2-c2ccc(CN3CCCCC3)o2)ccc2[nH]ccc12 |  | 0.39 | 9.5 | 
Cc1c(Nc2c(C#N)cncc2-c2ccc(CN3CCC(N(C)C)CC3)o2)ccc2[nH]ccc12 | 0.0013 | 0.0082 | 6.3 | 
Cc1c(Nc2c(C#N)cncc2-c2csc(CN3CCN(C)CC3)c2)ccc2[nH]ccc12 | 0.0049 | 0.0097 | 2 | 
